# Measured values reported in the kinase profiling compilation of Christmann-Franck et al. (2016).
# Legend:
# Assay in all cases: KINOMEscan competition binding
# Settings in all cases: compound 10.0 µM
# [1] = biological target: ACVR1 (human) (UniProt Q04771)
# [2] = biological target: ACVR1B (human) (UniProt P36896)
# [3] = biological target: AKT3 (human) (UniProt Q9Y243)
# [4] = biological target: AURKB (human) (UniProt Q96GD4)
# [5] = biological target: BMPR1B (human) (UniProt O00238)
# [6] = biological target: BRSK1 (human) (UniProt Q8TDC3)
# [7] = biological target: CDK13 (human) (UniProt Q14004)
# [8] = biological target: CDK19 (human) (UniProt Q9BWU1)
# CDK19 (human), sequence (Q9BWU1 whole entry, looked up): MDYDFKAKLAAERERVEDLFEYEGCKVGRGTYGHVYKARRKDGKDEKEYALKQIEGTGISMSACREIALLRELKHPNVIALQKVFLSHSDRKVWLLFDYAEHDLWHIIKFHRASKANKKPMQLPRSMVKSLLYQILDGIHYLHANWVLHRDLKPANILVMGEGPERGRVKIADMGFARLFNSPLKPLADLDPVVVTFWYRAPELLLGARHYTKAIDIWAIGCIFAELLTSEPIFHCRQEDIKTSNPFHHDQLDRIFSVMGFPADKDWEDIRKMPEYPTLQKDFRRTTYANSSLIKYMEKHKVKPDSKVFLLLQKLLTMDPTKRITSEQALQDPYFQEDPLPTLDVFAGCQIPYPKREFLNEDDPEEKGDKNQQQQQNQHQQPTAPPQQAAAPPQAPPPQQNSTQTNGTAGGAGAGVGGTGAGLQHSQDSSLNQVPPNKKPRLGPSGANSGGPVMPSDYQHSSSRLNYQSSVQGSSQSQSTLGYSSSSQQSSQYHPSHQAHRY
# [9] = biological target: CDK3 (human) (UniProt Q00526)
# [10] = biological target: CDKL1 (human) (UniProt Q00532)
# [11] = biological target: CSNK1A1 (human) (UniProt P48729)
# CSNK1A1 (human), sequence (P48729 whole entry, looked up): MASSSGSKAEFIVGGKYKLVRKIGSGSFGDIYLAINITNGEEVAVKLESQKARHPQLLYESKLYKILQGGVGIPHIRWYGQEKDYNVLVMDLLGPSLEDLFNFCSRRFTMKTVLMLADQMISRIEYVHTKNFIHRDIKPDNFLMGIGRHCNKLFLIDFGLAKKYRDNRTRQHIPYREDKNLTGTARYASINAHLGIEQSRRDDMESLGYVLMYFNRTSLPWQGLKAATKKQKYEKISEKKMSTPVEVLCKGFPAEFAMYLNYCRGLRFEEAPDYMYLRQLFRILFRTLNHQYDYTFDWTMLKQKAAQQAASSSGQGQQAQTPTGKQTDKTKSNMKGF
# [12] = biological target: CSNK1D (human) (UniProt P48730)
# [13] = biological target: CSNK2A2 (human) (UniProt P19784)
# [14] = biological target: HCK (human) (UniProt P08631)
# [15] = biological target: HUNK (human) (UniProt P57058)
# [16] = biological target: IGF1R (human) (UniProt P08069)
# [17] = biological target: IRAK3 (human) (UniProt Q9Y616)
# [18] = biological target: KDR (human) (UniProt P35968)
# [19] = biological target: LATS1 (human) (UniProt O95835)
# [20] = biological target: MAPK1 (human) (UniProt P28482)
# MAPK1 (human), sequence (P28482 whole entry, looked up): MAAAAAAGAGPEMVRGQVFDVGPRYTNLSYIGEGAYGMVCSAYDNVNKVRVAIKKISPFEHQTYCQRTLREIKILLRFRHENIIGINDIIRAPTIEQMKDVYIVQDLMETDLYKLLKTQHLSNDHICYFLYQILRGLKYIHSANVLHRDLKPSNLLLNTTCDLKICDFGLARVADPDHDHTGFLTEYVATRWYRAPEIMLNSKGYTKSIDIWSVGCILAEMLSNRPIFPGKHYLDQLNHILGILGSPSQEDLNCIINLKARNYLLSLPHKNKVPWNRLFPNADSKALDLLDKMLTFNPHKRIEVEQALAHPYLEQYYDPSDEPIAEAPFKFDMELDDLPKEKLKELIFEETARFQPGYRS
# [21] = biological target: MAPK4 (human) (UniProt P31152)
# [22] = biological target: MAPK7 (human) (UniProt Q13164)
# [23] = biological target: MET (human) (UniProt P08581)
# [24] = biological target: MLTK (human) (UniProt Q9NYL2)
# MLTK (human), sequence (Q9NYL2 whole entry, looked up): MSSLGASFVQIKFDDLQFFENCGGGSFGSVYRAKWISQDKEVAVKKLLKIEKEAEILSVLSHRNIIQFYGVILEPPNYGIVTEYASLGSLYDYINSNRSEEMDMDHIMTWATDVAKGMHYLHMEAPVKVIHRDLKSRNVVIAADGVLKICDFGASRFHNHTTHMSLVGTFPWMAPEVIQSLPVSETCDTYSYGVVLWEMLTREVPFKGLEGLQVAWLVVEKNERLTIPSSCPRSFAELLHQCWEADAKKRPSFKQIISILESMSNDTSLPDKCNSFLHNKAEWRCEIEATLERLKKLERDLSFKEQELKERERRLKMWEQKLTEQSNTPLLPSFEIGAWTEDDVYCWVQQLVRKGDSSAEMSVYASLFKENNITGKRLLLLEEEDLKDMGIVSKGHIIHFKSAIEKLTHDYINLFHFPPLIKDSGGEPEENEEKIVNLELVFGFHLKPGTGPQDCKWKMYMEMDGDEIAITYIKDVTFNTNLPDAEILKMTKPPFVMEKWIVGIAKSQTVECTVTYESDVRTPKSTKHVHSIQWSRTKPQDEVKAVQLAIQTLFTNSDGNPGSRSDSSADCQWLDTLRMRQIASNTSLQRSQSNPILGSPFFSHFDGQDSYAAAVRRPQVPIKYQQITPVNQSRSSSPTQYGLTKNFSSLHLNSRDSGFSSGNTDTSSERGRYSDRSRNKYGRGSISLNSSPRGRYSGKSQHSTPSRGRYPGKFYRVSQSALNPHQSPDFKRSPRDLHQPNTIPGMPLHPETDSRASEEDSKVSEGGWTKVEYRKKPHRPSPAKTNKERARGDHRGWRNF
# [25] = biological target: MTOR (human) (UniProt P42345)
# [26] = biological target: MUSK (human) (UniProt O15146)
# [27] = biological target: MYLK4 (human) (UniProt Q86YV6)
# [28] = biological target: NTRK2 (human) (UniProt Q16620)
# [29] = biological target: PDPK1 (human) (UniProt O15530)
# [30] = biological target: PI4KB (human) (UniProt Q9UBF8)
# PI4KB (human), sequence (Q9UBF8 whole entry, looked up): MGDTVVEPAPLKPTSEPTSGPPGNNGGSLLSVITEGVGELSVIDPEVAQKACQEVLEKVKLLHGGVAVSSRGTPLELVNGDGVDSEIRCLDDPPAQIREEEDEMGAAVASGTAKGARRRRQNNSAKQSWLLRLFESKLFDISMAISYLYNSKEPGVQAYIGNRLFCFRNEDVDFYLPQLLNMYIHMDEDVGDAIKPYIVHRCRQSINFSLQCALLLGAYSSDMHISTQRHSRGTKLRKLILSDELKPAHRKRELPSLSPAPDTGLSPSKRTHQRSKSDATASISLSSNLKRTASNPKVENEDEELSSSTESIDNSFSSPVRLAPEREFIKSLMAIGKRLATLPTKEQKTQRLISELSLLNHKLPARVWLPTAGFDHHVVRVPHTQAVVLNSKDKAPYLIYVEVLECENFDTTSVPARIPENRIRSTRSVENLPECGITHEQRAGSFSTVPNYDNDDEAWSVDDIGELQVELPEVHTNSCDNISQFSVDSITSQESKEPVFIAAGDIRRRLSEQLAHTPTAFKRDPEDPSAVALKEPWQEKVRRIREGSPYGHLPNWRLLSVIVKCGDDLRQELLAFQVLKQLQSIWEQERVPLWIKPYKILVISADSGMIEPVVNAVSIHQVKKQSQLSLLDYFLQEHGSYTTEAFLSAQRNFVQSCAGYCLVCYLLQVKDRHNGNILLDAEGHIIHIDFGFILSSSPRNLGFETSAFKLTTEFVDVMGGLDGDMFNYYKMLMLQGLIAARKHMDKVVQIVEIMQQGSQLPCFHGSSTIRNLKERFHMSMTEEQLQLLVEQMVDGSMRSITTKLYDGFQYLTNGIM
# [31] = biological target: PIK3CA (human) (UniProt P42336)
# [32] = biological target: PLK2 (human) (UniProt Q9NYY3)
# PLK2 (human), sequence (Q9NYY3 whole entry, looked up): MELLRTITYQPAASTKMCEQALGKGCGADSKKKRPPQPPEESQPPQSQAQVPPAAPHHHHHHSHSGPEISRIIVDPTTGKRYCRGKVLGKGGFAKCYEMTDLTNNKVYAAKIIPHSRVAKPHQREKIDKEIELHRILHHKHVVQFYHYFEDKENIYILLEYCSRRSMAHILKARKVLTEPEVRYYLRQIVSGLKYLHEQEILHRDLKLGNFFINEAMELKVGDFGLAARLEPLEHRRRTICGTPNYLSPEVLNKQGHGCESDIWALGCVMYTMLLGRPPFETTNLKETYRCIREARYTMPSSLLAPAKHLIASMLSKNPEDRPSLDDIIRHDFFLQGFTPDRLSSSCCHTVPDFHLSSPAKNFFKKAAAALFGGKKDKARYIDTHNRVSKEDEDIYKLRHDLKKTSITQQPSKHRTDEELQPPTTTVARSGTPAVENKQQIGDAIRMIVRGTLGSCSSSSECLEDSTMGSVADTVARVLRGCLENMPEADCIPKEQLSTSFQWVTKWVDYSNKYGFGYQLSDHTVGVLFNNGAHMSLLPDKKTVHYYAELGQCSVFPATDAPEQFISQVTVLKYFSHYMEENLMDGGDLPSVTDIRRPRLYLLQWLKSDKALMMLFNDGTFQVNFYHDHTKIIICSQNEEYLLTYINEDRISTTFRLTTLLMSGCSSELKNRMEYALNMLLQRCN
# [33] = biological target: RPS6KA1 KD1 (human) (UniProt Q15418)
# [34] = biological target: RPS6KA6 KD2 (human) (UniProt Q9UK32)
# [35] = biological target: TNNI3K (human) (UniProt Q59H18)
# [36] = biological target: TYK2 JH2 pseudokinase (human) (UniProt P29597)
# [37] = biological target: TYRO3 (human) (UniProt Q06418)
# [38] = biological target: WEE2 (human) (UniProt P0C1S8)
# WEE2 (human), sequence (P0C1S8 whole entry, looked up): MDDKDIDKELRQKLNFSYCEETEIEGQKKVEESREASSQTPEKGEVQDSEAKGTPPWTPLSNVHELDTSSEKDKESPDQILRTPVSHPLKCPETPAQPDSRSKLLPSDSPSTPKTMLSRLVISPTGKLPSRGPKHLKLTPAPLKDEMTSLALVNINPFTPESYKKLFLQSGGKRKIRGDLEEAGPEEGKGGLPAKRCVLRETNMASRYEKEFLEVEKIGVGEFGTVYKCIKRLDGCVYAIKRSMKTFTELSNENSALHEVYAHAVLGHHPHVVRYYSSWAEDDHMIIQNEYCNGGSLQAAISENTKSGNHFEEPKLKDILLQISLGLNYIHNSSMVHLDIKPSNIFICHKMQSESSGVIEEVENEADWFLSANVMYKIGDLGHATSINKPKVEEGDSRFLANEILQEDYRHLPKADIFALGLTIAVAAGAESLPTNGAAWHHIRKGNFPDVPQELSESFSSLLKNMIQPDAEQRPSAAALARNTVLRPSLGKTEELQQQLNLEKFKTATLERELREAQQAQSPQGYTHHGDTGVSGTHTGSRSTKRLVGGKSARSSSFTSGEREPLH
# [39] = biological target: YES1 (human) (UniProt P07947)
# BMPR1B (human), sequence (O00238 whole entry, looked up): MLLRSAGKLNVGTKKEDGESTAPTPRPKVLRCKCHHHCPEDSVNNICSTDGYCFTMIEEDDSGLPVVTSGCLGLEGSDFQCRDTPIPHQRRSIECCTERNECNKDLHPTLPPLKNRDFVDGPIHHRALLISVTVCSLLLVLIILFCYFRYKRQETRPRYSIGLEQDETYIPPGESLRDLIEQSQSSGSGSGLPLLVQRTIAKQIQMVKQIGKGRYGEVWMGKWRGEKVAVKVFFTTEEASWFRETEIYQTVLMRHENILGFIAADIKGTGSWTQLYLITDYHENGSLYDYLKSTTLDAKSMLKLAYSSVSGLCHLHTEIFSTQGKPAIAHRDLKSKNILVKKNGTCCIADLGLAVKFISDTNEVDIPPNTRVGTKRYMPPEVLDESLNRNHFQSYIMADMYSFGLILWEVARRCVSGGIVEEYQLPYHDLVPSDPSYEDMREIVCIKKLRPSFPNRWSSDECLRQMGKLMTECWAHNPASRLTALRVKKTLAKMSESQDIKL
# AURKB (human), sequence (Q96GD4 whole entry, looked up): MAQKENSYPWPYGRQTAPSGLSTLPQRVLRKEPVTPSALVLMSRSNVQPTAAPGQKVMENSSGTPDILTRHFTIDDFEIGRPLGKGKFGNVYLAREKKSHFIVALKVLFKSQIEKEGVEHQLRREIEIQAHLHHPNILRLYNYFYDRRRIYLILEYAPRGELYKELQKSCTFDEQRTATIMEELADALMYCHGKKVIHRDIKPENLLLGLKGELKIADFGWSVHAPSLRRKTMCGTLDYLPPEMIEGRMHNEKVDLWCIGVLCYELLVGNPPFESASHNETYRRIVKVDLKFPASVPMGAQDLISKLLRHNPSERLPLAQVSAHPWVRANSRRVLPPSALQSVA
SMILES,"kinase still bound, per cent of control [1] [%]","kinase still bound, per cent of control [2] [%]","kinase still bound, per cent of control [3] [%]","kinase still bound, per cent of control [5] [%]","kinase still bound, per cent of control [6] [%]","kinase still bound, per cent of control [7] [%]","kinase still bound, per cent of control [8] [%]","kinase still bound, per cent of control [9] [%]","kinase still bound, per cent of control [10] [%]","kinase still bound, per cent of control [11] [%]","kinase still bound, per cent of control [12] [%]","kinase still bound, per cent of control [13] [%]","kinase still bound, per cent of control [15] [%]","kinase still bound, per cent of control [16] [%]","kinase still bound, per cent of control [17] [%]","kinase still bound, per cent of control [19] [%]","kinase still bound, per cent of control [20] [%]","kinase still bound, per cent of control [21] [%]","kinase still bound, per cent of control [22] [%]","kinase still bound, per cent of control [23] [%]",further results
NC(=O)Nc1cc(-c2cccc(F)c2)sc1C(=O)N[C@@H]1CCCNC1,4,28,100,0.1,4.9,100,100,100,46,0.5,15,5.9,68,44,6.4,11,65,61,80,3.1,"kinase still bound, per cent of control [4]: 4.8%; kinase still bound, per cent of control [14]: 0%; kinase still bound, per cent of control [18]: 0.05%; kinase still bound, per cent of control [24]: 40%; kinase still bound, per cent of control [25]: 72%; kinase still bound, per cent of control [26]: 18%; kinase still bound, per cent of control [27]: 51%; kinase still bound, per cent of control [28]: 0.35%; kinase still bound, per cent of control [29]: 0.7%; kinase still bound, per cent of control [30]: 100%; kinase still bound, per cent of control [31]: 100%; kinase still bound, per cent of control [32]: 40%; kinase still bound, per cent of control [33]: 11%; kinase still bound, per cent of control [34]: 1.2%; kinase still bound, per cent of control [35]: 7.3%; kinase still bound, per cent of control [36]: 3.2%; kinase still bound, per cent of control [37]: 3.2%; kinase still bound, per cent of control [38]: 91%; kinase still bound, per cent of control [39]: 0.2%"
O=C(Nc1cccc(Nc2ncc(Br)c(NCCc3cnc[nH]3)n2)c1)N1CCCC1,76,61,100,0,7.6,0.35,100,62,1.8,28,73,0,73,17,0.7,21,77,3.2,62,4.4,"kinase still bound, per cent of control [4]: 0%; kinase still bound, per cent of control [14]: 42%; kinase still bound, per cent of control [18]: 1.8%; kinase still bound, per cent of control [24]: 12%; kinase still bound, per cent of control [25]: 87%; kinase still bound, per cent of control [26]: 9.4%; kinase still bound, per cent of control [27]: 6.8%; kinase still bound, per cent of control [28]: 0.45%; kinase still bound, per cent of control [29]: 2.4%; kinase still bound, per cent of control [30]: 35%; kinase still bound, per cent of control [31]: 100%; kinase still bound, per cent of control [32]: 11%; kinase still bound, per cent of control [33]: 4.3%; kinase still bound, per cent of control [34]: 10%; kinase still bound, per cent of control [35]: 28%; kinase still bound, per cent of control [36]: 0%; kinase still bound, per cent of control [37]: 85%; kinase still bound, per cent of control [38]: 36%; kinase still bound, per cent of control [39]: 31%"
CNC(=O)c1cc(Oc2ccc(NC(=O)Nc3ccc(Cl)c(C(F)(F)F)c3)cc2)ccn1,100,92,100,98,92,86,1.4,52,70,100,100,100,70,100,81,79,100,100,85,69,"kinase still bound, per cent of control [14]: 27%; kinase still bound, per cent of control [24]: 4.2%; kinase still bound, per cent of control [25]: 80%; kinase still bound, per cent of control [26]: 0.1%; kinase still bound, per cent of control [27]: 100%; kinase still bound, per cent of control [29]: 76%; kinase still bound, per cent of control [32]: 71%; kinase still bound, per cent of control [33]: 82%; kinase still bound, per cent of control [34]: 38%; kinase still bound, per cent of control [35]: 19%; kinase still bound, per cent of control [36]: 100%; kinase still bound, per cent of control [37]: 80%; kinase still bound, per cent of control [38]: 87%; kinase still bound, per cent of control [39]: 69%"
COCC(=O)NC/C=C/c1ccc2ncnc(Nc3ccc(Oc4ccc(C)nc4)c(C)c3)c2c1,90,100,100,74,100,100,0.5,100,69,100,90,100,70,83,82,100,100,100,100,74,"kinase still bound, per cent of control [4]: 100%; kinase still bound, per cent of control [18]: 100%; kinase still bound, per cent of control [24]: 76%; kinase still bound, per cent of control [25]: 79%; kinase still bound, per cent of control [26]: 100%; kinase still bound, per cent of control [27]: 100%; kinase still bound, per cent of control [28]: 100%; kinase still bound, per cent of control [29]: 100%; kinase still bound, per cent of control [30]: 100%; kinase still bound, per cent of control [31]: 100%; kinase still bound, per cent of control [32]: 100%; kinase still bound, per cent of control [33]: 100%; kinase still bound, per cent of control [34]: 88%; kinase still bound, per cent of control [35]: 100%; kinase still bound, per cent of control [36]: 24%; kinase still bound, per cent of control [37]: 80%; kinase still bound, per cent of control [38]: 81%; kinase still bound, per cent of control [39]: 65%"
